Source: PubChem BioAssay AID328 (DTP/NCI, 2004)
Values joined by “and” are separate entries in the source; they are usually repeats but may differ in a detail not shown here. Equal values may be shown once. Toxic doses and inconclusive results are not listed.

Test system: BDF1 mice, P388 leukemia ip, median survival T/C
Assay: NCI In Vivo Anticancer Drug Screen. Data for tumor model P388 Leukemia (intraperitoneal) in B6D2F1 (BDF1) mice
Conditions: endpoint: median survival time, vehicle: saline, higher = longer survival
How it was run: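 Compound-treated tumour-bearing mice were compared with vehicle-treated controls. Survival was recorded, and the value is the treated-group measurement divided by the control-group measurement (T/C).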

Structure (SMILES): Nc1ccc2nc3ccc(N)cc3[n+](-c3ccccc3)c2c1
- T/C (dose: 0.12 mg/kg/injection, schedule: Q01DX009 (ip)): 100 % of control
- T/C (dose: 0.25 mg/kg/injection, schedule: Q01DX009 (ip)): 110 % of control
- T/C (dose: 0.5 mg/kg/injection, schedule: Q01DX009 (ip)): 110 % of control
- T/C (dose: 1.0 mg/kg/injection, schedule: Q03HX024 (ip)): 150 % of control
- T/C (dose: 1.13 mg/kg/injection, schedule: Q01DX009 (ip)): 116 % of control
- T/C (dose: 1.56 mg/kg/injection, schedule: Q01DX009 (ip)): 113 % of control
- T/C (dose: 2.0 mg/kg/injection, schedule: Q01DX009 (sc)): 108 % of control
- T/C (dose: 2.0 mg/kg/injection, schedule: Q03HX024 (ip)): 155 % of control
- T/C (dose: 4.0 mg/kg/injection, schedule: Q01DX009 (ip)): 153 % of control
- T/C (dose: 4.0 mg/kg/injection, schedule: Q01DX009 (sc)): 103 % of control
- T/C (dose: 4.0 mg/kg/injection, schedule: Q03HX016 (ip)): 153 % of control
- T/C (dose: 4.0 mg/kg/injection, schedule: Q03HX024 (ip)): 156 % of control
- T/C (dose: 4.0 mg/kg/injection, schedule: Q04DX003 (sc)): 101 % of control
- T/C (dose: 6.0 mg/kg/injection, schedule: Q01DX009 (ip)): 166 % of control
- T/C (dose: 6.25 mg/kg/injection, schedule: Q01DX009 (ip)): 154 % of control
- T/C (dose: 8.0 mg/kg/injection, schedule: Q01DX009 (ip)): 155 % of control and 173 % of control
- T/C (dose: 8.0 mg/kg/injection, schedule: Q01DX009 (oral)): 95 % of control
- T/C (dose: 8.0 mg/kg/injection, schedule: Q01DX009 (sc)): 106 % of control
- T/C (dose: 8.0 mg/kg/injection, schedule: Q04DX003 (sc)): 103 % of control
- T/C (dose: 8.0 mg/kg/injection, schedule: Q08DX002 (ip)): 123 % of control
- T/C (dose: 9.0 mg/kg/injection, schedule: Q01DX009 (ip)): 150 % of control
- T/C (dose: 9.3 mg/kg/injection, schedule: Q01DX009 (ip)): 154 % of control
- T/C (dose: 16.0 mg/kg/injection, schedule: Q01DX009 (ip)): 182 % of control
- T/C (dose: 16.0 mg/kg/injection, schedule: Q01DX009 (oral)): 105 % of control
- T/C (dose: 16.0 mg/kg/injection, schedule: Q01DX009 (sc)): 96 % of control
- T/C (dose: 16.0 mg/kg/injection, schedule: Q04DX003 (oral)): 99 % of control
- T/C (dose: 16.0 mg/kg/injection, schedule: Q04DX003 (sc)): 106 % of control
- T/C (dose: 16.0 mg/kg/injection, schedule: Q08DX002 (ip)): 122 % of control
- T/C (dose: 18.0 mg/kg/injection, schedule: Q01DX009 (ip)): 154 % of control and 168 % of control and 195 % of control
- T/C (dose: 25.0 mg/kg/injection, schedule: Q04DX003 (ip)): 175 % of control
- T/C (dose: 32.0 mg/kg/injection, schedule: Q01DX009 (oral)): 99 % of control
- T/C (dose: 32.0 mg/kg/injection, schedule: Q01DX009 (sc)): 105 % of control
- T/C (dose: 32.0 mg/kg/injection, schedule: Q04DX003 (ip)): 156 % of control
- T/C (dose: 32.0 mg/kg/injection, schedule: Q04DX003 (oral)): 105 % of control
- T/C (dose: 32.0 mg/kg/injection, schedule: Q04DX003 (sc)): 97 % of control
- T/C (dose: 33.0 mg/kg/injection, schedule: Q04DX003 (ip)): 150 % of control and 170 % of control
- T/C (dose: 50.0 mg/kg/injection, schedule: Q04DX003 (ip)): 175 % of control and 180 % of control
- T/C (dose: 64.0 mg/kg/injection, schedule: Q01DX009 (oral)): 102 % of control
- T/C (dose: 64.0 mg/kg/injection, schedule: Q04DX003 (oral)): 101 % of control
- T/C (dose: 64.0 mg/kg/injection, schedule: Q04DX003 (sc)): 101 % of control
- T/C (dose: 75.0 mg/kg/injection, schedule: Q04DX003 (ip)): 165 % of control
- T/C (dose: 128.0 mg/kg/injection, schedule: Q01DX009 (oral)): 107 % of control
- T/C (dose: 128.0 mg/kg/injection, schedule: Q04DX003 (oral)): 101 % of control
- T/C (dose: 256.0 mg/kg/injection, schedule: Q04DX003 (oral)): 100 % of control
